Measured values from patent US20130005728A1, “SUBSTITUTED PYRIMIDINES AS PROSTAGLANDIN D2 RECEPTOR ANTAGONISTS” (AVENTIS PHARMACEUTICALS INC., priority 2010, published 2013).
Structures can show the parent of a compound that is named as a salt. Where two headings read alike, the source gives them in different places.

Biological target: T1, human prostaglandin D2 receptor (DP) (DP1) (Homo sapiens, UniProt Q13258)
T1 construct: endogenous in cells; host or cells: human platelets in platelet-rich plasma from donor blood
T1 sequence (Q13258 1-359): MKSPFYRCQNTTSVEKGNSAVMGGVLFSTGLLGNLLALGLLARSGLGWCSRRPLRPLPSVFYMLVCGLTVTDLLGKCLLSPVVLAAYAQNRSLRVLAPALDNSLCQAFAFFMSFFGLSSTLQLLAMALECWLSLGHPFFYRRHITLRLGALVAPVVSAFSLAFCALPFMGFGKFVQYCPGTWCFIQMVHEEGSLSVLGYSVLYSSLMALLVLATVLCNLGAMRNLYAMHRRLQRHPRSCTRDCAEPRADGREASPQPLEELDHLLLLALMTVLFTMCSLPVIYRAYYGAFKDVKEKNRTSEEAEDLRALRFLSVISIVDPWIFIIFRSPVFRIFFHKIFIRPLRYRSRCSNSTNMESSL
Assay: Antagonist activity on BW245C-induced cAMP accumulation in human platelet rich plasma (hPRP) by HTRF cAMP assay
Assay type: cell-based
Settings: inhibition of BW245C (25 nM)-induced cAMP accumulation in human platelet rich plasma
Source text: Assessment of Antagonist Activities of Compounds on BW245C-induced cAMP Accumulation in Human Platelet Rich Plasma (hPRP) by HTRF cAMP Assay
The purpose of the assay is to assess compound antagonist activity at the human prostaglandin D2 receptor (DP) (DP1) in the presence of plasma proteins. DP is a Gs-protein coupled receptor, the activation of which induces cAMP accumulation. BW245C is a DP selective agonist. Therefore, by measuring inhibition of BW245C-induced 3′-5′-cyclic adenosine monophosphate (cAMP) accumulation in human platelet-rich plasma (PRP), the assay enables us to identify or confirm antagonist compounds at the human DP and/or IP receptors.
The principle of the assay is based on HTRF technology (Homogeneous Time-Resolved Fluorescence). The method is a competitive immunoassay between native cAMP produced by cells and the tracer cAMP labeled with the dye d2. The tracer is visualized by a monoclonal antibody anti-cAMP labeled with cryptate. The specific signal (i.e. energy transfer) is inversely related to the concentration of cAMP in the standards or samples. The assay was carried out using the cAMP HiRange HTRF kit from Cisbio (catalog number 62AM6PEB, 888-963-4567).
Preparation of Human Platelet Rich Plasma (hPRP): Human blood was obtained from sanofi-aventis on-site blood donor panel. The blood was gently transferred from the blood bag into a 50 ml centrifuge tube and centrifuged at 223×g (1000 rpm) for 15 minutes without break. The top layer (PRP) was aspirated slowly and transferred to a 250 ml centrifuge tube. The PRP was placed in the cell culture hood for approximately 30 minutes before use.
Preparation of IBMX: IBMX is a phosphodiesterase (PDE) inhibitor and is included in the assay to prevent breakdown of cAMP. 1M IBMX stock was prepared in DMSO. 20 μL of 1M IBMX stock was then added into 30 μL of DMSO to obtain a 400 mM IBMX DMSO solution. This was further diluted 1:50 in 0.9% sodium chloride to obtain an 8 mM IBMX working solution. The solution was sonicated for 60 minutes before use.
Preparation of BW245C: 10 mM BW245C stock was prepared in DMSO and aliquots were stored at −80° C. On the day of the assay, 10 mM BW245C stock was diluted 1 to 400 in DMSO to make a 25 μM solution. 100 μL of the 25 μM BW245C solution was added to 4900 μL of 0.9% sodium chloride to make a 500 nM working solution.
Dilution of compounds: 10 mM compound DMSO stock solutions were serially diluted 1:3 in DMSO in a 96-well plate to achieve 11 different concentrations ranging from 10 mM to 0.00017 mM. A further 1:20 dilution in 0.9% sodium chloride solution was carried out for each concentration to obtain working concentrations ranging from 500 μM to 0.0085 μM (11 points) for each compound. For positive and negative controls, DMSO (without compound) was diluted 1:20 in 0.9% sodium chloride solution.
Preparation of cAMP standards, cAMP-d2 and anti-cAMP cryptate (all in the assay kit): cAMP standard was reconstituted by adding distilled water according to the manufacturer's instruction (456 μL of water usually). The reconstituted cAMP standard was serially diluted 1:4 in 0.9% sodium chloride solution to achieve 11 different concentrations. cAMP-d2 was reconstituted by adding 2 mL of distilled water and then further diluting it in 8 mL of lysis buffer (in the kit). Anti-cAMP cryptate was reconstituted by adding 1.1 mL of distilled water and then further diluting it in 4.4 mL of lysis buffer.
Assay Procedure: In the assay, each compound was run in duplicate. The final assay volume was 50 μl in each well.
In the assay plate, 42 μL of platelet rich plasma (PRP) was added in each well. This was followed by the addition in each well of 2.5 μL of 8 mM IBMX (final concentration 400 μM) and 3 μL of diluted compound at varying concentrations (final concentrations ranging from 30,000 nM to 0.51 nM, 11 points for each compound). In the positive and negative control wells, 3 μL of diluted DMSO solution was added instead of compound. […]

[1] = compound tested as HCl salt, read-out: hPRP IC50 (as HCl salt)

Row | SMILES | IC50 (read-out: hPRP IC50) [nM] | IC50 [1] [nM]
1 | COc1nc(NCCc2ccc(OC(F)(F)F)cc2)cc(N2C[C@@H](C(=O)O)[C@H](c3ccccc3OC)C2)n1 (racemic) [Example 15, (±)-trans-4-(2-Methoxy-phenyl)-1-{2-methoxy-6-[2-(4-trifluoromethoxy-phenyl)-ethylamino]-pyrimidin-4-yl}-pyrrolidine-3-carboxylic acid] | 436 | –
2 | COc1nc(NCCc2ccc(OC(F)(F)F)cc2)cc(N2CCOC(C(=O)O)C2)n1 (stereo not drawn) [Example 1, 4-{2-Methoxy-6-[2-(4-trifluoromethoxy-phenyl)-ethylamino]-pyrimidin-4-yl}-morpholine-2-carboxylic acid trifluoroacetate] | 10 | –
3 | COc1nc(NCCc2ccc(OC(F)(F)F)cc2)cc(N2CCN(CC(=O)O)CC2)n1 [Example 2, (4-{2-Methoxy-6-[2-(4-trifluoromethoxy-phenyl)-ethylamino]-pyrimidin-4-yl}-piperazin-1-yl)-acetic acid tristrifluoroacetate] | 368 | –
4 | COc1nc(NCCc2ccc(OC(F)(F)F)cc2)cc(N2CCCCC2C(=O)O)n1 (stereo not drawn) [Example 3, 1-{2-Methoxy-6-[2-(4-trifluoromethoxy-phenyl)-ethylamino]-pyrimidin-4-yl}-piperidine-2-carboxylic acid trifluoroacetate] | – | 885
5 | COc1nc(NCCc2ccc(OC(F)(F)F)cc2)cc(N2CCCCC2CC(=O)O)n1 (stereo not drawn) [Example 4, (1-{2-Methoxy-6-[2-(4-trifluoromethoxy-phenyl)-ethylamino]-pyrimidin-4-yl}-piperidin-2-yl)-acetic acid trifluoroacetate] | 32 | –
6 | COc1nc(NCCc2ccc(OC(F)(F)F)cc2)cc(N2CCOCC2)n1 [Example 5, (2-Methoxy-6-morpholin-4-yl-pyrimidin-4-yl)-[2-(4-trifluoromethoxy-phenyl)-ethyl]-amine] | – | 1180
7 | CCOC(=O)N1CCN(c2cc(NCCc3ccc(OC(F)(F)F)cc3)nc(OC)n2)CC1 [Example 6] | 609 | –
8 | COc1nc(NCCc2ccc(OC(F)(F)F)cc2)cc(N2CCC(C)(C(=O)O)C2)n1 (stereo not drawn) [Example 7, 1-{2-Methoxy-6-[2-(4-trifluoromethoxy-phenyl)-ethylamino]-pyrimidin-4-yl}-3-methyl-pyrrolidine-3-carboxylic acid] | 317 | –
9 | COc1nc(NCCc2ccc(OC(F)(F)F)cc2)cc(N2C[C@@H](C(=O)O)[C@H](C(C)C)C2)n1 [Example 8, (3S,4S)-4-Isopropyl-1-{2-methoxy-6-[2-(4-trifluoromethoxy-phenyl)-ethylamino]-pyrimidin-4-yl}-pyrrolidine-3-carboxylic acid] | 376 | –
10 | COc1nc(NCCc2ccc(OC(F)(F)F)cc2)cc(N2CCC(C(=O)O)C2)n1 (stereo not drawn) [Example 9, 1-{2-Methoxy-6-[2-(4-trifluoromethoxy-phenyl)-ethylamino]-pyrimidin-4-yl}-pyrrolidine-3-carboxylic acid] | 575 | –
11 | COc1nc(NCCc2ccc(OC(F)(F)F)cc2)cc(N2C[C@H](C(=O)O)[C@@H](c3ccccc3)C2)n1 [Example 10, (3R,4S)-1-{2-Methoxy-6-[2-(4-trifluoromethoxy-phenyl)-ethylamino]-pyrimidin-4-yl}-4-phenyl-pyrrolidine-3-carboxylic acid] | 28 | –
12 | COc1ccc([C@H]2CN(c3cc(NCCc4ccc(OC(F)(F)F)cc4)nc(OC)n3)C[C@@H]2C(=O)O)cc1 [Example 11, (3R,4S)-4-(4-Methoxy-phenyl)-1-{2-methoxy-6-[2-(4-trifluoromethoxy-phenyl)-ethylamino]-pyrimidin-4-yl}-pyrrolidine-3-carboxylic acid] | 409 | –
13 | COc1nc(NCCc2ccc(OC(F)(F)F)cc2)cc(N2CCc3ccccc3C2)n1 [Example 12, [6-(3,4-Dihydro-1H-isoquinolin-2-yl)-2-methoxy-pyrimidin-4-yl]-[2-(4-trifluoromethoxy-phenyl)-ethyl]-amine trifluoroacetic acid salt] | 1220 | –
14 | COc1nc(NCCc2ccc(OC(F)(F)F)cc2)cc(N2CCN(c3ccccc3)CC2)n1 [Example 13, [2-Methoxy-6-(4-phenyl-piperazin-1-yl)-pyrimidin-4-yl]-[2-(4-trifluoromethoxy-phenyl)-ethyl]-amine] | 397 | –
15 | COc1nc(NCCc2ccc(OC(F)(F)F)cc2)cc(N2CC[C@H](CC(=O)O)C2)n1 [Example 14, ((R)-1-{2-Methoxy-6-[2-(4-trifluoromethoxy-phenyl)-ethylamino]-pyrimidin-4-yl}-pyrrolidin-3-yl)-acetic acid] | 713 | –
